Data from publication PMC9078534 (RSC Advances, 2018).
Where a name gives a salt, the structure may show the parent alone. Read-outs that look alike come from different tables or passages of the source.

How the values were obtained:
[1] = Renal clearance (CLr) of SAL and PAH in hypoxic and normoxic rats; type: in vivo; conditions: rat, plasma and urine, iv
Method: The animal surgery was conducted as described in literature.[23,24] Briefly, the cannulae were inserted into rat right jugular veins, left femoral veins, and bladders after an i.m. injection of 90 mg kg^−1 ketamine and 9 mg kg^−1 xylazine. All surgical procedures were performed under anaesthesia and in a clean surgical room with sterilized instruments. […] Urine from the bladder was collected through the catheter into pre-weighed micro-centrifuge tubes and the volume of urine collected during each 30 min period was calculated by weight. To equilibrate and establish a steady rate of urine excretion, rats were continuously infused with warm saline solution containing mannitol (5%, w/v) for 1 h at a rate of 16 μl min^−1 through the femoral veins (n = 5 each group) using a Sage Instruments Syringe Pump (Cambridge, MA, USA). During the experiment, the rat was placed on a heating pad to maintain body temperature. […] After each blood sampling, an aliquot of 200 μl saline was infused into the jugular to replace the volume of blood taken.

[2] = Transport of SAL across normoxic and hypoxic Caco-2 monolayers (Papp); type: in vitro ADME, human; conditions: human, SAL 10 μM
Method: (§1) The human colorectal adenocarcinoma cell line, Caco-2 cell, was obtained from Cell Resource Center, Institute of Basic Medical Sciences (CAMS). Caco-2 cells, a recognized cell model used for permeability study, were cultured in minimum essential medium (MEM) containing 10% fetal bovine serum, 1% nonessential amino acids, 100 U ml^−1 penicillin, and 100 μg ml^−1 streptomycin, and then were kept in a humidified incubator at 37 °C with 5% CO2. To obtain differentiated monolayers, Caco-2 cells were seeded in Transwell® chambers (12 mm, 0.4 μm pore size; Corning, MA, USA) at a density of 1 × 10^5 cells per wells and cultured for 21 days. TEER (trans-epithelial electrical resistance) was used to monitor the integrity of the monolayer. Monolayer with TEER above 600 Ω cm^2 was employed in the present study. Caco-2 cells grown in Transwell® at passage 32–45 were used for the experiment. After cultivation for 21 days, normoxic incubations were performed in a tissue culture incubator at 37 °C, 5% CO2, while hypoxic incubations were performed in an oxygen-control hypoxic glove box at 37 °C, 1% oxygen content for 24 h.[15] The enzyme activities of LDH, CS and the protein expression of HIF-1α were monitored for hypoxic model validation. The morphological study on hypoxic Caco-2 monolayer was performed with the aid of transmission electron microscopy (TEM) (JEM-2100F, Japan). The expression level of tight junction proteins (ZO-1) in Caco-2 cell under normoxic and hypoxic conditions was measured by western blotting.
(§2) According to the method published in Nature Protocols, the transport test was performed in Hank's balanced salt solution (HBSS) containing 5.56 mM glucose, 10 mM HEPES and 1.26 mM CaCl2.[16] Before experiment, the monolayers were washed twice with HBSS medium and pre-incubated for 30 min. […] Equal volume of the blank HBSS buffer was added back to the chambers after sampling to maintain a constant systemic volume. The collected samples were stored at −20 °C until UPLC-MS/MS analyses.
(§3) The Caco-2 monolayer was pre-incubated with phlorizin (100 μM) for 30 min before the transport experiment.

Caco-2 monolayers = assay: as above; type: in vitro ADME, human
Method: as §1, §2, §3

[3] = Protein binding of SAL in rat plasma by ultrafiltration; type: in vitro ADME; conditions: three spiking concentrations (100, 500, 1000 μg ml^−1), 37 °C, 30 min
Method: After incubation at 37 °C for 30 min, an aliquot of 500 μl plasma was added into the upper part of the centrifugal filter device (Amicon®, cutoff value: 10 kDa). The centrifuge was then conducted in a rate of 11 300g for 30 min at room temperature. SAL in the original sample and ultrafiltrate were determined by UPLC-MS/MS method.

[4] = Stability of SAL in samples during UPLC-MS/MS method validation; type: physicochemical
Method: To prepare the samples for calibration curves, 10 μl of IS working solution (containing 100 μg ml^−1 paracetamol) and 10 μl of analyte work solution was added to 100 μl of blank rat plasma. Approximately 300 μl methanol was then added to the above plasma sample for protein precipitation. After centrifuging the mixture at 11 300g for 10 min, the supernatant was collected followed by being evaporated to dryness under nitrogen at room temperature. The residue was reconstituted with 100 μl of methanol. After being centrifuged at 11 300g for 10 min, an aliquot of 5 μl supernatant was injected into the UPLC-MS/MS system for analyses. […] For all QC samples in rat biological matrices, the % RSD of both intra-day and inter-day precision was below 10.4%, and the accuracy was within the range of 85.4 to 100%, which met the criteria from FDA.

[5] = male, SD, rat, in vivo
From the text: (§4) Briefly, rats were exposed to hypoxic condition (oxygen content of 9%) for 3 consecutive days to construct the model. Normoxic controls were kept in room air (21% O2) for 3 consecutive days. The concentrations of LDH, CS, and HIF-1α in rat plasma were monitored with the aid of commercial kit listed in ‘Material’ section for model validation.
(§5) Twenty male SD rats were randomly divided into hypoxic group (HYP) and normoxic group (NOR) with ten rats in each group. Following hypoxic and normoxic model construction, rats were prepared for surgery. […] Briefly, rats were anesthetized with an intramuscular dose of ketamine (90 mg kg^−1) and xylazine (9 mg kg^−1) followed by cannulation with a polythene tube (0.5 mm i.d., 1 mm, Portex Ltd., Hythe, Kent, England) in the right jugular vein. The rats were allowed to recover overnight and had free access to water and food. […] The blood samples (200 μl) were taken from the jugular vein catheter and were collected into the heparinized tubes at the following time points: 0, 5, 10, 30, 60, 120, 240, 360, 480, 720 and 1440 min after oral administration and 0, 2, 5, 10, 30, 60, 120, 240, 360, 480 min after intravenous administration, respectively. An aliquot of 200 μl sterile isotonic saline was given immediately to rats after blood sample collection for compensation of body fluid loss. The animals were sacrificed with pentobarbital sodium salt (200 mg kg^−1, i.p.) at the end of the experiment. The obtained blood samples were centrifuged at 11 300g for 5 min at 4 °C and the plasma samples (supernatant) was collected for UPLC-MS/MS analyses. Protein precipitation was adopted for samples preparation.
(§6) Pharmacokinetic parameters including the area under the curve (AUC) and elimination half-life (t1/2) were calculated by non-compartmental model. The peak plasma concentration (Cmax) and the time for reaching Cmax (Tmax) were obtained directly from the experimental data.

[6] = cited from earlier work
in vivo = conditions: male, SD, rat
From the text: as §4, §5, §6

SULT2A1 = assay: Kinetics of p-tyrosol sulfate formation from p-tyrosol in rat liver S9 fraction (RLS), sulfation by SULT2A1; type: in vitro ADME
Method: The formation rate of p-tyrosol sulfate could therefore serve as an indicator for the hepatic metabolic rate of SAL. […] The incubation was carried out at 37 °C and terminated by the addition of an equal volume of ice-cold methanol containing 5 μM IS.[18] The content of p-tyrosol sulfate was determined by the UPLC-MS/MS described above. […] All the experiments were carried out in triplicate.
GraphPad Prism® was employed to analyze enzyme kinetic data.

CBG = system: CBG; parameters: method as in doi:10.1021/symposium; conditions: other phenolic glycosides; cited from earlier work
[7] = substrate: OC[C@H]1O[C@@H](OCCc2ccc(O)cc2)[C@H](O)[C@@H](O)[C@@H]1O; assay: cells, lysate or membranes named; conditions: pH 7.4, 37.0 °C
[8] = Caco-2, hypoxic Caco-2 monolayer model (1% O2, 24 h)
[9] = Caco-2, normoxic Caco-2 monolayer model
[10] = background statement, no reference given

Molecule: Nc1ccc(C(=O)NCC(=O)O)cc1 [PAH, p-aminohippuric acid, reference compound]
- CL renal ([1]; 30 mg/kg, hypoxic rats, PAH 30 mg kg^−1 i.v. bolus): 0.818 mL/min/kg
- CL renal ([1]; 30 mg/kg, normoxic rats, PAH 30 mg kg^−1 i.v. bolus): 3.28 mL/min/kg

Molecule: OC[C@H]1O[C@@H](OCCc2ccc(O)cc2)[C@H](O)[C@@H](O)[C@@H]1O [SAL, salidroside]
- Papp A→B at 180 min, 10 μM [2, 8]: 1.77 ± 0.18 ×10⁻⁶ cm/s
- Papp B→A at 180 min, 10 μM [2, 8]: 0.7 ± 0.2 ×10⁻⁶ cm/s
- Papp A→B at 180 min, 10 μM [2, 9]: 0.88 ± 0.11 ×10⁻⁶ cm/s
- Papp B→A at 180 min, 10 μM [2, 9]: 0.088 ± 0.02 ×10⁻⁶ cm/s
- ratio between Papp(A→B) and Papp(B→A) (Caco-2 monolayers; hypoxic Caco-2 monolayer model): 2.53
- ratio between Papp(A→B) and Papp(B→A) (Caco-2 monolayers; normoxic Caco-2 monolayer model): 10.0
- ratio between Papp(A→B) and Papp(B→A) (Caco-2 monolayers; normoxic Caco-2 monolayer model, after addition of SGLT1 inhibitor (phlorizin 100 μM)): 2.24
- CL renal ([1]; 444 ug/kg, hypoxic rats, SAL 444 μg kg^−1 i.v. bolus): 0.497 mL/min/kg
- CL renal ([1]; 444 ug/kg, normoxic rats, SAL 444 μg kg^−1 i.v. bolus): 1.77 mL/min/kg
- plasma binding ratio, hypoxic versus normoxic rats [3]: similar
- stability ([4]; auto-sampler (4 °C) for 24 h): stable
- stability ([4]; −80 °C for 30 days): stable
- MRT(0→t) ([5]; iv, 444 ug/kg): 70.9 ± 7.9 min
- t1/2 ([5]; iv, 444 ug/kg): 97.5 ± 12.5 min
- Cmax ([5]; po, 4.44 mg/kg): 1835.4 ± 690.5 ng/mL
- Tmax ([5]; po, 4.44 mg/kg): 48.0 ± 16.4 min
- share of parent compound that undergoes deglycosylation and sulfation ([6]; after oral administration to rats, literature and preliminary studies): more than 50%
- share of administered SAL excreted from urine as parent compound [6, 10]: about 20%
- share of eliminated SAL accounted for by renal clearance [6, 10]: no more than 20%
- MRT last (in vivo; iv, 444 ug/kg, MRT(0→t)): 48.3 min
- half-life (in vivo; iv, 444 ug/kg, t1/2): 67.2 ± 11.8 min
- Cmax (in vivo; po, 4.44 mg/kg, Cmax): 2070 ± 264 ng/mL
- Tmax (in vivo; po, 4.44 mg/kg, Tmax): 36 min

Molecule: O=S(=O)(O)Oc1ccc(CCO)cc1 [p-Tyrosol sulfate, p-tyrosol sulfate]
- share of total metabolites of SAL ([6]; rats, systemic circulation): over 50%

Molecule: OCCc1ccc(O)cc1 [p-tyrosol]
- Clint of SULT2A1 (SULT2A1; hypoxic RLS): 10.4 ± 2.7 µL/min/mg
- Vmax of SULT2A1 (p-tyrosol sulfate formation from p-tyrosol) (SULT2A1; hypoxic RLS): 78.3 ± 11.2 nmol/min/mg
- Clint of SULT2A1 (SULT2A1; normoxic RLS): 5.8 ± 1.2 µL/min/mg
- Vmax of SULT2A1 (p-tyrosol sulfate formation from p-tyrosol) (SULT2A1; normoxic RLS): 23.3 ± 4.4 nmol/min/mg

Molecule: daidzein 4-glycoside
- Km (CBG): 50 µM

Molecule: quercetin 4-glycoside
- Km (CBG): 65 µM

B1: cytosolic β-glucosidase (CBG) (Rattus norvegicus) (protein)
chain: MAFPVGFGWGAATAAYQVEGGWDADGRGPCVWDTFTHQGGERVFENQTGDVACGSYTLWEEDLKCIKQLGLTHYRFSLSWSRLLPDGTTGFINQKGIDYYNKIIDDLLKNGVTPIVAIYHFDLPQALEDLGGWLSEAIVEAFDKYAQFCFSTFGDRVKQWLTINEPNILALLAYDMGIFAPGVPHIGIGGYQAAHNLIKAHARSWHSYDSLFREEQKGFVSLSLFFCWLEPADPNSEIDQEATKRAINFHLDFFAKPIFIDGDYPDVVKSQVASMSKKQGYPSSRLPEFTEEEKKMIKGTADFFAVQYYTTRLVRHQENKKRELGFLQDVEIEFFPNPFWKNVGWIYVVPWGIRKLLKYIKDTYNNPVIYITENGFPQCDPPSLDDTQRWEYFRQTFQELFKAIHVDDVNLQLYCAWSLLDNFEWNNGYSRRFGLFHVDFEDPARPRTPYRSAKEYAKVIRDNGLAGAM
- Km ([7]; other: hypoxic RLS): 19.5 ± 3.1 µM
- Km ([7]; other: normoxic RLS): 5.2 ± 0.6 µM
